For test [1], the system named is MCF-7 human breast carcinoma cells. The test can be described thus: MCF-7 cell growth inhibition. The test is classed as cell-based. The settings on record: Homo sapiens, MCF7, cells grown for 96 h, read-out: MCF-7 IC50 ± SD.
The next test has as its system HCT116 spheroids. Description: 3D culture (spheroids) from HCT116 cells. The settings on record: 160 nM for 48 h. The test is classed as cell-based. The method, then:
(§1) 3D culturing of BX-PC3 and HCT116 cells were performed seeding 500 cells/well into ultra-low attachment 96-well round-bottomed plates and cultured in supplemented RPMI and DMEM, respectively, at 37 °C under […] atmosphere for 7 days, until spheroids were formed. To evaluate the effect of compound 4 on spheroid growth, a range of doses (10–320 nM) was added to the cell suspension after spheroid formation, and the culture was maintained for 48 h. Spheroid diameters wwere measured using the ZEISS ZEN imaging software from the pictures obtained with an inverted optical microscope (Axio Vert A1, Zeiss, Oberkochen, Germany).

A further test concerns BX-PC3 spheroids. The test can be described thus: 3D culture (spheroids) from BX-PC3 cells. In kind it is cell-based. The settings on record: 320 nM for 48 h. The method, then:
as §1

Test [2] has as its system HCT116 colon cancer cells. Description: HCT116 cell viability (MTS assay). The test is classed as cell-based. The settings on record: inhibition of growth of HCT116 colon cancer cells, incubation time 48 h. The method, then:
(§2) MCF-7 breast carcinoma cells were obtained from the National Cancer Institute drug screening laboratory. HCT116 cell line was grown in Dulbecco's modified Eagle's medium (DMEM). BX-PC3 cells were grown in RPMI-1640 medium. Both media were supplemented with 10% fetal bovine serum (FBS), 100 U mL^−1 penicillin, […] streptomycin and 1% of L-glutamine. Cell lines were cultured at 37 °C in 5% CO2 and 95% air in a humidified incubator. T-ALL (Jurkat) cells were grown in RPMI-1640 medium. Both media were supplemented with 115 units per mL of penicillin G, 115 μg mL^−1 of streptomycin, and 10% fetal bovine serum (FBS, all purchased from Invitrogen, Milan, Italy). Cancer cells were seeded in tissue treated, flat bottom, 384-well plates (Corning, Corning, NY, USA) in 24 μL of complete medium per well, using a Microlab STAR 96-CORE liquid handling system (Hamilton Bonaduz, Bonaduz, Switzerland).
(§3) Cell viability of HCT116 and BX-PC3 cells was determined using the 3-(4,5-dimethylthiazol-2-yl)-5-(3-carboxymethoxyphenyl)-2-(4-sulfophenyl)-2H-tetrazolium (MTS) colorimetric assay.[38] […] After 48 h of growth, the MTS reagent was added to each well and absorbance at […] was measured by a microplate reader (Victor, PerkinElmer). The results were expressed as % relative to control cells (100%) and IC50 values were calculated using GraphPad Prism statistics software by nonlinear regression analysis.

Test [3] has as its system BX-PC3 pancreatic cancer cells. Description: BX-PC3 cell viability (MTS assay). The test is classed as cell-based. The settings on record: Homo sapiens, BXPC-3; inhibition of growth of BX-PC3 pancreatic cancer cells; incubation time 48 h. The method, then:
as §2, §3
For orientation: Tetrazolium assays rely on reduction of a dye to a coloured formazan, in cell work by metabolically active cells.

The subject of test [4] is tubulin. Description: Inhibition of tubulin polymerization (tubulin assembly, turbidity at 350 nm). The settings on record: tubulin at 10 μM, read-out: Tubulin IC50 ± SD. The test is classed as biochemical. The method, then:
The assembly reaction mixtures contained 0.8 M monosodium glutamate (pH 6.6 with HCl in a 2 M stock solution), 10 μM tubulin, 4% (v/v) DMSO, and varying concentrations of drug. Following a 15 min preincubation at 30 °C, samples were chilled on ice, GTP to 0.4 mM was added, and turbidity development was followed at 350 nm in a temperature-controlled recording spectrophotometer for 20 min at 30 °C. The extent of reaction was measured. Full experimental details were previously described.[35]

The subject of test [5] is Jurkat T lymphocyte cancer cells. Description: Jurkat (T-ALL) cell viability (resazurin assay). In kind it is cell-based. The settings on record: Homo sapiens, 96 h, inhibition of growth of Jurkat T lymphocyte cancer cells, incubation time 96 h. The method, then: as §2, with “Cancer cells were seeded in tissue treated, flat bottom, 384-well plates (Corning, Corning, NY, USA) in 24 μL of complete medium per well, using a Microlab STAR 96-CORE liquid handling system (Hamilton Bonaduz, Bonaduz, Switzerland).” left out
For T-ALL, drug stock solutions were prepared for each compound by dissolving them at 10 mM in DMSO. […] The fluorescence signal was measured at 590 nm using a Spark 10 M spectrophotometer (Tecan Group Ltd., Mannedorf, Switzerland). Only plates with Z′ > 0.5 were further analyzed for the drug screening. Raw data were normalized according to the following equation: cell viability (%) = (x − POS)/(NEG − POS) × 100, where x is the relative fluorescence units (RFU) collected from each single well, NEG is the mean of intraplate negative controls (DMSO, corresponding to 100% cell viability), and POS is the mean of intraplate positive controls (benzethonium chloride 75 μM, equal to 0% cell viability). […]
(Resazurin is reduced to fluorescent resorufin, in cell work by metabolically active cells.)

Test [6] has as its system tubulin. Description: Inhibition of [3H]colchicine binding to tubulin. The method, then:
The reaction mixtures contained 1.0 μM tubulin, 5.0 μM [^3H]colchicine, and 5.0 or 1.0 μM inhibitor, as indicated, and were incubated for 10 min at 37 °C. Complete details were described previously.[36]

Experimental findings from PMC12306498, “Microwave-assisted synthesis of tubulin assembly inhibitors as anticancer agents by aryl ring reversal and conjunctive approach” (RSC Medicinal Chemistry, 2025) are described below.

SMILES strings stand for the structures. Values joined by “and” are separate entries in the source; they are usually repeats but may differ in a detail not shown here. Identical values can stand only once. “Also recorded” adds a separate entry of the source.

As a reminder, the IC50 is the concentration at which inhibition is half-maximal. Take `COc1ccc(-c2cn(-c3ccccn3)cc2C(=O)c2cc(OC)c(OC)c(OC)c2)cc1` [Compound 4, (4-(4-Methoxyphenyl)-1-(pyridin-2-yl)-1H-pyrrol-3-yl)(3,4,5-trimethoxyphenyl)methanone]: the 50% inhibitory concentration (IC50) in test [1] was found to be 9.6 ± 0.8 nM; in test [2] (Homo sapiens, HCT-116, 48 h) it was 18 nM; in test [2], 28 nM; in test [3], 17 nM; in the test on tubulin [4], 190 ± 6 nM; in test [5], 41 nM. Also, the “Spheroid diameter and morphology” value in the test with HCT116 spheroids and in the test on BX-PC3 spheroids was “altered the morphology of treated spheroids; also recorded: significant reduction of spheroid diameter” throughout. Also, the “Colch. binding (% ± SD)” value in the test with tubulin [6] (inhibition of [3H]colchicine binding, tubulin, [3H]colchicine, inhibitor at 1, 5 and 5 μM) is 78% and 78 ± 1%. Further, the “Inhibition of [3H]colchicine binding” value in the test with tubulin [6] (inhibitor at 1 μM, tubulin 1 μM, [3H]colchicine 5 μM) came out at 76%.
